pIC50: −log10 of the molar value. Where two headings read alike, the source gives them in different places.
Tests used:
[1] = Human liver microsome stability assay (Biological Example 8b); conditions: liver microsomes, pH 7.4
Experimental: The reaction was started with addition of excess NADPH (5 mg/mL, 15 μL in 0.1 M potassium phosphate buffer, 1.0 mM EDTA, pH 7.4), the total volume is 45 μL (compound final concentration was 1 μM). […] 50 μL of the supernatant was transferred from each well into a 96-well sample plate containing 50 μL of ultra-pure water (Millipore) for LC-MS/MS analysis.

[2] = biological target: T1, CYP17 (human testicular microsome) (Homo sapiens, UniProt P05093); experiment: CYP17 enzymatic assay (% inhibition at 10 nM), version 1 (Biological Example 5); assay type: biochemical; conditions: 10 nM compound, DHEA by ELISA, read-out: Biological Example No. 5: CYP17 percent inhibition at 10 nM (version 1)
T1 construct: using microsomal fraction from human testis (Celsis Cat #S00110) as the enzyme source; tissue Celsis S00110; host or cells: human testis microsomal fraction
T1 sequence (P05093 1-508): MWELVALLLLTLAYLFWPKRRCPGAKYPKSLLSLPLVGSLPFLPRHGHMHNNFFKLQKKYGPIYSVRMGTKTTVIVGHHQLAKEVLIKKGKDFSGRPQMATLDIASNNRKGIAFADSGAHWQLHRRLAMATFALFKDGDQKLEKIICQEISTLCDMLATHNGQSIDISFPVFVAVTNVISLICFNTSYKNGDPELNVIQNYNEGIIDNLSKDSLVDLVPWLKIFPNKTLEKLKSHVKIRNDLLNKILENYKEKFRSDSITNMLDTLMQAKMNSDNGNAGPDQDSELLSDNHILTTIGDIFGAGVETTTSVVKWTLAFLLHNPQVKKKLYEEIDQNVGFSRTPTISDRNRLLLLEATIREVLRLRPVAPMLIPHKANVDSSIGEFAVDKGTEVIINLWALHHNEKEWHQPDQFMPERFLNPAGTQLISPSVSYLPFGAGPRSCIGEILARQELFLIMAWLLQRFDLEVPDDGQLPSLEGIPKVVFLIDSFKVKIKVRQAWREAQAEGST

[3] = biological target: T2, CYP17 (H295R cells) (Homo sapiens, UniProt P05093); experiment: CYP17 cellular assay (IC50), testosterone in H295R cells (Biological Example 7); assay type: cell-based
T2 construct: endogenous in cells; host or cells: H295R cells
T2 sequence (P05093 1-508): T1 sequence (P05093 1-508)
Experimental: The assays were performed in 96-well plates. Typically H295R cells were seeded at 4.5×10^4 cells/well in 100 μL Growth Medium containing DMEM/F-12 (Gibco/Invitrogen; 11330-032), 2.5% Nu-Serum (BD Bioscience; 355100) and ITS (BD Bioscience; 354352), and cultured at 37° C., 5% CO2 for 24 hr. The next day, media were carefully removed and cells were washed twice with 200 μL 1×HBSS++. Test compounds were then added to the cells at 100, 10, 1, 0.1 nM final concentrations in 125 μL volume per well in serum-free media containing DMEM/F-12 and ITS+ Premix (BD Bioscience; 354352) with 0.1% methanol. Serum-free media with 0.1% methanol without test compound was used as control. Cells were incubated with compounds at 37° C. for additional 24 hours, and the cultured media from each compound treated well was harvested for measurement of testosterone concentration by ELISA according to manufacturer's instruction (Assay Design). Testosterone concentration of each sample was plotted vs. the concentration of the test compounds.

[4] = biological target: T1, CYP17 (human testicular microsome); experiment: CYP17 enzymatic assay (IC50) (Biological Example 4); assay type: biochemical
[5] = biological target: T1, CYP17 (human testicular microsome); experiment: CYP17 enzymatic assay (% inhibition at 1 nM) (Biological Example 12); assay type: biochemical; conditions: compound at 1 nM
[6] = biological target: T3, Cyp21 enzyme (Human HEK 293-Cyp21 stable transfected cells) (Homo sapiens, UniProt P08686); experiment: CYP21-HEK293 enzymatic assay (IC50) (Biological Example 11); assay type: cell-based; conditions: HEK 293-Cyp21 cells
T3 construct: expressed in transfected cells
T3 sequence (P08686 1-495): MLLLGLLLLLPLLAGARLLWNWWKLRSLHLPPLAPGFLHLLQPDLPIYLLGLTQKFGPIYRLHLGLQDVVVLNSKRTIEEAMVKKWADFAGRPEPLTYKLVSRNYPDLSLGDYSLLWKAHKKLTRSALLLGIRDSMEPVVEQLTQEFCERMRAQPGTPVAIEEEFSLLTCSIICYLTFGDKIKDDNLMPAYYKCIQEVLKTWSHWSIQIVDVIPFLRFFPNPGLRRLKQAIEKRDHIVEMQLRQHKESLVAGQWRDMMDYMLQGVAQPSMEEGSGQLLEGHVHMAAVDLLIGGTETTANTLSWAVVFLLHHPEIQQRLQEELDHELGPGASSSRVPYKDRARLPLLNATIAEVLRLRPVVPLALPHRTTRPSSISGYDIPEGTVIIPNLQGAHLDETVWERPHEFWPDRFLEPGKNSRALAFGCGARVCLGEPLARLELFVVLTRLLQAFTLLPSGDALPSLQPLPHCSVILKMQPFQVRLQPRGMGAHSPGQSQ
Experimental: This assay was used to determine compound activity against Cyp21 enzyme. […] The next day, 20 μL medium was carefully removed and 10 μL of 10× pre-made compounds in DMEM+10% FBS+10% methanol was transferred to the wells to final concentrations of 1000, 100, 10, 1, or 0.1 nM. Mock treatment was 1% methanol in growth media and the cells were left at 37° C., 5% CO2 for 5 hr. After the incubation, 10 μL of substrate progesterone (Sigma) was added to the wells to make a final concentration of 10 μM. The cells were incubated the cells at 37° C. for 20 hr. At the end of incubation, 90 μL of conditioned media was removed to measure DOC level by ELISA.
The next day, the plates were washed twice with 250 μl of wash solution (0.015M PBS pH 7.4 containing 0.05% Tween 20). After being washed, the wells were blocked with 250 μL blocking buffer (3% BSA in 0.025M PBS, pH 7.4) at 37° C. for 2 h. The plates were washed again 3 times as before, and then 90 μL of sample /standards (prepared in complete growth media) was added into the appropriate wells followed by 10 μL of antibody solution (1:450 rabbit anti-DOC in 0.6% BSA/PBS). The plates were incubated at room temperature for 2 h on a shaker. The contents of the wells were removed and the plate was washed 4 times. After the final wash, 100 μL of secondary antibody (1:12000 HRP-goat-anti-rabbit IgG conjugate 0.6% BSA/PBS) was added into each well. […] The plate was washed again 4 times and 100 μL of TMB substrate solution was added to each well. The plate was incubated at room temperature for 10 min. 100 μL of stop solution was added to each well and the optical density was read at 450 nm.
The mean absorbance value for each sample was used to determine the corresponding concentration from the standard curve. Data was analyzed with “log(antagonist) vs response variable slope” under “non-linear regression analysis” using Prism5 software.

[7] = read-out: CYP17 enzymatic assay % inhibition at 1 nM (Biological Example No. 12)
[8] = H295R cells, testosterone, read-out: CYP17 cellular assay IC50 (Biological Example No. 7)
[9] = human testicular microsome, read-out: CYP17 enzymatic assay IC50 (Biological Example No. 4)
[10] = read-out: CYP21-HEK293 enzymatic assay IC50 (Biological Example No. 11)
[11] = read-out: Biological Example No. 12: CYP17 enzymatic assay % inhibition at 1 nM
[12] = H295R cells, testosterone, read-out: Biological Example No. 7: CYP17 cellular assay IC50
[13] = human testicular microsome, read-out: Biological Example No. 4: CYP17 enzymatic assay IC50
[14] = read-out: Biological Example No. 11: CYP21-HEK293 enzymatic assay IC50

SMILES	half-life at 1 μM [1] [min]	inhibition at 0.001 µM [5, 7] [%]	pIC50 [3, 8]	pIC50 [6, 10]	inhibition at 0.001 µM [5, 11] [%]	pIC50 [3, 12]	pIC50 [4, 13]	pIC50 [6, 14]	further results
COc1cncc(C2=CC=C3[C@@H]4CC=C5C[C@@H](O)CC[C@]5(C)[C@H]4CC[C@]23C)c1 [Compound 81, (3S,10R,13S)-17-(5-methoxypyridin-3-yl)-10,13-dimethyl-2,3,4,7,8,9,10,11,12,13-decahydro-1H-cyclopenta[a]phenanthren-3-ol]	> 50	–	–	–	–	–	–	–	inhibition at 0.01 µM [2]: > 80%; pIC50 ([3]; H295R cells, testosterone by ELISA, 24 hours, read-out: Biological Example No. 7: CYP17 cellular assay IC50): > 7.82; pIC50 ([4]; human testicular microsome, DHEA by ELISA, read-out: Biological Example No. 4: CYP17 enzymatic assay IC50): > 7.96
C[C@]12CC[C@H]3[C@@H](CCC4=CC(=O)C=C[C@@]43C)C1=CC=C2c1cccnc1 [Compound 290, (10R,13S)-10,13-dimethyl-17-(pyridin-3-yl)-6,7,8,9,10,11,12,13-octahydro-3H-cyclopenta[a]phenanthren-3-one]	1 to 50	> 50	> 7.82	7.00 to 8.00	–	–	–	–	pIC50 [4, 9]: > 7.96
CC1=C2CC[C@@H]3[C@H](CC[C@]4(C)C(c5cccnc5)=CC[C@@H]34)[C@@]2(C)CCC1=O [Compound 300, (10R,13S)-4,10,13-trimethyl-17-(pyridin-3-yl)-6,7,8,9,10,11,12,13,14,15-decahydro-1H-cyclopenta[a]phenanthren-3(2H)-one]	–	–	–	–	> 50	> 7.82	> 7.96	< 6.00	–
CC1C[C@@H]2[C@H](CC[C@]3(C)C(c4cccnc4)=CC[C@@H]23)[C@@]2(C)CCC(=O)C=C12 (stereo partly drawn) [Compound 309, (10R,13S)-6,10,13-trimethyl-17-(pyridin-3-yl)-6,7,8,9,10,11,12,13,14,15-decahydro-1H-cyclopenta[a]phenanthren-3(2H)-one]	1 to 50	> 50	> 7.82	7.00 to 8.00	–	–	–	–	pIC50 [4]: > 7.96
C=C1C[C@@H]2[C@H](CC[C@]3(C)C(c4cccnc4)=CC[C@@H]23)[C@@]2(C)C=CC(=O)C=C12 [Compound 311, (10R,13S)-10,13-dimethyl-6-methylene-17-(pyridin-3-yl)-6,7,8,9,10,11,12,13,14,15-decahydro-3H-cyclopenta[a]phenanthren-3-one]	1 to 50	> 50	> 7.82	> 8.00	–	–	–	–	pIC50 [4, 9]: > 7.96
C=C1C[C@@H]2[C@H](CC[C@]3(C)C(c4cccnc4)=CC[C@@H]23)[C@@]2(C)CCC(=O)C=C12 [Compound 312, (10R,13S)-10,13-dimethyl-6-methylene-17-(pyridin-3-yl)-6,7,8,9,10,11,12,13,14,15-decahydro-1H-cyclopenta[a]phenanthren-3(2H)-one]	1 to 50	> 50	> 7.82	7.00 to 8.00	–	–	–	–	pIC50 [4, 9]: > 7.96
C[C@]12CCC(=O)C=C1C1(CC1)C[C@@H]1[C@@H]2CC[C@]2(C)C(c3cccnc3)=CC[C@@H]12 [Compound 313, (10R,13S)-10,13-dimethyl-17-(pyridin-3-yl)-1,7,8,9,10,11,12,13,14,15-decahydrospiro[cyclopenta[a]phenanthrene-6,1′-cyclopropan]-3(2H)-one]	1 to 50	> 50	> 7.82	> 8.00	–	–	–	–	pIC50 [4, 9]: > 7.96
CC1C[C@@H]2[C@H](CC[C@]3(C)C(c4cccnc4)=CC[C@@H]23)[C@@]2(C)C=CC(=O)C=C12 (stereo partly drawn) [Compound 318, (10R,13S)-6,10,13-trimethyl-17-(pyridin-3-yl)-6,7,8,9,10,11,12,13,14,15-decahydro-3H-cyclopenta[a]phenanthren-3-one]	1 to 50	–	–	–	> 50	> 7.82	–	> 8.00	–
C=C1C[C@@H]2[C@H](CC[C@]3(C)C(c4cncc(F)c4)=CC[C@@H]23)[C@@]2(C)C=CC(=O)C=C12 [Compound 320, (10R,13S)-17-(5-fluoropyridin-3-yl)-10,13-dimethyl-6-methylene-6,7,8,9,10,11,12,13,14,15-decahydro-3H-cyclopenta[a]phenanthren-3-one]	1 to 50	–	–	–	–	> 7.82	> 7.96	< 7.00	–
CC1CC2C3=CC=C(c4cncc(F)c4)[C@@]3(C)CCC2[C@@]2(C)CCC(=O)C=C12 (stereo partly drawn) [Compound 327, (10R,13S)-17-(5-fluoropyridin-3-yl)-6,10,13-trimethyl-6,7,8,9,10,11,12,13-octahydro-1H-cyclopenta[a]phenanthren-3(2H)-one]	1 to 50	–	–	–	10 to 50	–	–	> 8.00	pIC50 [3]: > 7.82
CC1CC2C(CC[C@]3(C)C(c4cncc(F)c4)=CCC23)[C@@]2(C)CCC(=O)C=C12 (stereo partly drawn) [Compound 342, (10R,13S)-17-(5-fluoropyridin-3-yl)-6,10,13-trimethyl-6,7,8,9,10,11,12,13,14,15-decahydro-1H-cyclopenta[a]phenanthren-3(2H)-one]	–	–	–	–	> 50	> 7.82	> 7.96	< 7.00	–
C[C@]12CC(O)CC1CCC1C2CC[C@]2(C)C(c3cncc(F)c3)=CCC12 (stereo partly drawn) [Compound 398, (3aS,5aS)-6-(5-fluoropyridin-3-yl)-3a,5a-dimethyl-1,2,3,3a,3b,4,5,5a,8,8a,8b,9,10,10a-tetradecahydrodicyclopenta[a,f]naphthalen-2-ol]	> 50	–	–	–	10 to 50	> 7.82	> 7.96	–	–
C[C@]12CC(O)CC1CCC1C2CC[C@]2(C)C(c3cccnc3)=CCC12 (stereo partly drawn) [Compound 399, (3aS,5aS)-3a,5a-dimethyl-6-(pyridin-3-yl)-1,2,3,3a,3b,4,5,5a,8,8a,8b,9,10,10a-tetradecahydrodicyclopenta[a,f]naphthalen-2-ol]	1 to 50	–	–	–	> 50	> 7.82	> 7.96	–	–
C[C@]12CCC(=O)C=C1C=CC1C2CC[C@]2(C)C(c3cncc(F)c3)=CCC12 (stereo partly drawn) [Compound 409, (10R,13S)-17-(5-fluoropyridin-3-yl)-10,13-dimethyl-8,9,10,11,12,13,14,15-octahydro-1H-cyclopenta[a]phenanthren-3(2H)-one]	1 to 50	–	–	–	> 50	> 7.82	> 7.96	–	–

From US20130252930A1 (BIOMARIN PHARMACEUTICAL INC., priority 2010, published 2013)
